{
  "source": "patent US20030138394A1",
  "about": "“Cosmetic and/or pharmaceutical preparations that contain an extract of the plant argania spinosa” (priority 2000, published 2003)",
  "tested_on": "human adipocytes",
  "assay": "Lipolysis activity on human adipocytes (released glycerol)",
  "format": "cell-based",
  "conditions": "30 mM; 90 minutes at 37° C.; reference medium = 0",
  "procedure": "Method: The adipocytes were isolated from human subcutaneous tissue, as corresponds to the general technique in accordance with Rodbell. The extract as in\nExample 1 or the comparison substances are dissolved in the reference medium and then brought into contact with the isolated adipocytes for 90 minutes at 37° C. In each case one adipocyte preparations [sic] was analyzed. The percentage increase in released glycerol in the supernatant of the medium was determined by means of spectrophotometry in accordance with the method by Carpéné et al. The reference administered was the medium without substance to be analyzed and was set equal to 0.",
  "data": [
    {"smiles": "Cn1c(=O)c2c(ncn2C)n(C)c1=O", "note": "[Caffeine]", "values": [
      {"measurement": "% increase in released glycerol", "value": 181, "unit": "%"}
    ]}
  ]
}
